Values of other authors, collected in US20070015926A1, “Method of preparing R-(+)-alpha-lipoic acid and its salt” (Nanjing Rally Biochemical Inc., priority 2005, published 2007).

Settings: if given adequate oxygen

Structure (SMILES): O=C(O)CCCC[C@@H]1CCSS1 [R-(+)-α-Lipoic Acid]
- polymerization: susceptible to be polymerized
